Source: patent US20210070748A1, “INHIBITORS OF BRUTONS TYROSINE KINASE” (Pharmacyclics LLC, priority 2015, published 2021)
Like-named read-outs stand apart in the source and are kept apart here.

Tests used:
[1] = target: T1, ITK (Homo sapiens, UniProt Q08881); assay: Inhibition of a panel of kinases, in vitro HotSpot kinase assay: ITK; type: biochemical
T1 sequence (Q08881 1-620): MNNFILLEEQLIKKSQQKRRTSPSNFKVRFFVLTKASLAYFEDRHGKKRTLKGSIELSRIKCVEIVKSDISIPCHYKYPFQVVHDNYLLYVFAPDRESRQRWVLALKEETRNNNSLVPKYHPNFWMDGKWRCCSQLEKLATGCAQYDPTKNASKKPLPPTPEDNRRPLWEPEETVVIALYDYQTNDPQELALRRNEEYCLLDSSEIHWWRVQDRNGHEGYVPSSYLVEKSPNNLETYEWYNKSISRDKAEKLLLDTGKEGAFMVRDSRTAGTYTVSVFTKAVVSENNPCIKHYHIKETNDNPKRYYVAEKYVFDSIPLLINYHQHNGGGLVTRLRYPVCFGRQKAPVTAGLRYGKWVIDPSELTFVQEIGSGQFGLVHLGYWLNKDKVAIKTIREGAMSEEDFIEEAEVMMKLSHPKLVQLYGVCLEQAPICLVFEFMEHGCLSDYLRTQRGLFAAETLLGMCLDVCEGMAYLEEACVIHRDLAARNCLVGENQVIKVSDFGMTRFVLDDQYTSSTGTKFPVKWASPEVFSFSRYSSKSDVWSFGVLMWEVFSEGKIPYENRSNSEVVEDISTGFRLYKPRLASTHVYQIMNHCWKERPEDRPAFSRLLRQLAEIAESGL
Method: The degree of inhibition of a panel of kinases is determined using the in vitro HotSpot kinase assay (purified enzymes, ^33P-ATP, an appropriate substrate and 1 μM ATP).

[2] = target: T2, BTK-WT (Homo sapiens, UniProt Q06187); assay: Btk in vitro inhibitory activity (one of Method A TR-FRET, Method B electrophoretic mobility shift, Method C radiometric filter binding); type: biochemical; conditions: read-out: IC50 BTK-WT
T2 construct: purified from insect cells as a full-length construct containing an N-terminal 6X-His tag; His6 (N); made in house; host or cells: insect cells (baculovirus Sf21 in Method B)
Method: Btk kinase activity is determined using a time-resolved fluorescence resonance energy transfer (TR-FRET) methodology. Measurements are performed in a reaction volume of 50 μL using 96-well assay plates. […] The reaction is quenched by the addition of 1.2 equivalents of EDTA (relative to divalent cation) in 25 μL of 1× Lance buffer (Perkin-Elmer). […] The TR-FRET signal is measured on a multimode plate reader with an excitation wavelength (λEx) of 330 nm and detection wavelengths (λEm) of 615 and 665 nm. Activity is determined by the ratio of the fluorescence at 665 nm to that at 615 nm. For each compound, enzyme activity is measured at various concentrations of compound. Negative control reactions are performed in the absence of inhibitor in replicates of six, and two no-enzyme controls are used to determine baseline fluorescence levels. Inhibition constants, Ki(app), were obtained using the program BatchKi(Kuzmic et al. (2000), Anal. Biochem. 286:45-50). IC50s are obtained according to the equation:
IC50={Ki(app)/(1+[ATP]/Km^ATP)}+[E]total/2;
Kinase activity is measured in vitro using electrophoretic mobility shift assay. The kinase reactions are assembled in a total volume of 25 μL in 384 well plates. […] The reaction is incubated for one hour and is quenched by the addition of 45 μL of termination buffer (100 mM HEPES, pH7.5, 0.01% Triton X-100, 30 mM EDTA). The terminated reactions are analyzed using 12 channel LabChip® 3000 microfluidic detection instrument (Caliper Life Sciences). […] Change in the relative fluorescence intensity of the substrate and product peaks is the parameter measured, reflecting enzyme activity. In the presence of an inhibitor, the ratio between product and substrate is altered: the signal of the product decreases, while the signal of the substrate increases.
Activity in each sample is determined as the product to sum ratio (PSR): P/(S+P), where P is the peak height of the product peptide and S is the peak height of the substrate peptide. For each compound, enzyme activity is measured at various concentrations (12 concentrations of compound spaced by 3× dilution intervals). Negative control samples (0%-inhibition in the absence of inhibitor) and positive control samples (100%-inhibition, in the presence of 20 mM EDTA) are assembled in replicates of four and are used to calculate %-inhibition values for each inhibitor at each concentration. Percent inhibition (Pinh) is determined using following equation:
Pinh=(PSR0%-PSRinh)/(PSR0%−PSR100%)*100, where PSRinh is the product sum ratio in the presence of inhibitor, PSR0% is the average product sum ration in the absence of inhibitor and PSR100% is the average product sum ratio in 100%-inhibition control samples;
The IC50 values of inhibitors are determined by 4 parameter sigmoidal dose-response model fitting of the inhibition curves (Pinh versus inhibitor concentration) using XLfit 4 software.
Human Btk kinase (Genbank accession # NP_000052) was purified from insect cells as a full-length construct containing an N-terminal 6X-His tag. Btk kinase activity was determined using a radiometric filter binding assay. Measurements are performed in a low μL reaction volume 384-well assay plates. […] IC50 values and curve fits were obtained using Prism (GraphPad Software).

[3] = Table 15, C compounds, 1 μM ATP

T2 sequence (Q06187 whole entry): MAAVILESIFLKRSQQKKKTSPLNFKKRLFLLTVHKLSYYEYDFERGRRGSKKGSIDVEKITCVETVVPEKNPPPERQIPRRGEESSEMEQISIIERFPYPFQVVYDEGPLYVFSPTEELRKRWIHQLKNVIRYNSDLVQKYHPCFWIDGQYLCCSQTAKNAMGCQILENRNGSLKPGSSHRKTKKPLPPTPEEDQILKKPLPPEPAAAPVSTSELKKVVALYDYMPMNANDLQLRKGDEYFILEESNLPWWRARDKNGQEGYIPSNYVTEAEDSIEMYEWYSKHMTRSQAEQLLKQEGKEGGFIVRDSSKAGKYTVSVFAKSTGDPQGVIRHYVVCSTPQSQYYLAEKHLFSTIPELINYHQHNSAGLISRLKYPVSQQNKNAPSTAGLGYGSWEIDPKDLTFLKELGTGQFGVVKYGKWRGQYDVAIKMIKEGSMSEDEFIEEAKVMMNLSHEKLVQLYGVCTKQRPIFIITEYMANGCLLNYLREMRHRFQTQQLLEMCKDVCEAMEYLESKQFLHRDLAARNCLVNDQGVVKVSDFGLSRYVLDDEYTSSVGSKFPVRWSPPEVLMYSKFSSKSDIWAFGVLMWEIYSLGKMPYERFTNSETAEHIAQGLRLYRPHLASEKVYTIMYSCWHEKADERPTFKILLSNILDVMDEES

| Structure (SMILES) | IC50 [1, 3] | IC50 ([2]; Table 15, C compounds) | IC50 ([1]; E compounds, Table 17) | IC50 ([2]; E compounds, Table 17) |
| --- | --- | --- | --- | --- |
| C=CC(=O)N1CCC[C@@H](Nc2nnc(C(N)=O)c(Nc3cccc(-c4nccs4)c3)n2)C1 [Example C-86, (R)-3-(1-acryloylpiperidin-3-ylamino)-5-(3-(thiazol-2-yl)phenylamino)-1,2,4-triazine-6-carboxamide] | 10 to 100 nM | ≤ 10 nM | – | – |
| C=CC(=O)N1CCC[C@@H](Nc2nnc(C(N)=O)c(Nc3ccc4c(c3)CCC(=O)N4C)n2)C1 [Example C-87, (R)-3-(1-acryloylpiperidin-3-ylamino)-5-(1-methyl-2-oxo-1,2,3,4-tetrahydroquinolin-6-ylamino)-1,2,4-triazine-6-carboxamide] | ≤ 10 nM | ≤ 10 nM | – | – |
| C=CC(=O)N1CCC[C@@H](Nc2nnc(C(N)=O)c(Nc3ccc(C(C)C)cc3)n2)[C@@H]1C [Example E-17, 3-((2S,3R)-1-acryloyl-2-methylpiperidin-3-ylamino)-5-(4-isopropylphenylamino)-1,2,4-triazine-6-carboxamide] | – | – | 10 to 100 nM | ≤ 10 nM |
| C=CC(=O)N1CCC[C@H](Nc2nnc(C(N)=O)c(Nc3ccc(-c4ncco4)cc3)n2)C1 [Example E-18, (S)-3-(1-acryloylpiperidin-3-ylamino)-5-(4-(oxazol-2-yl)phenylamino)-1,2,4-triazine-6-carboxamide] | – | – | 10 to 100 nM | ≤ 10 nM |
| C=CC(=O)N1CCCC[C@H](Nc2nnc(C(N)=O)c(Nc3ccc(C(C)C)cc3)n2)C1 [Example E-19, (S)-3-(1-acryloylazepan-3-ylamino)-5-(4-isopropylphenylamino)-1,2,4-triazine-6-carboxamide] | – | – | 100 to 1000 nM | ≤ 10 nM |
| C=CC(=O)N1CCCC[C@@H](Nc2nnc(C(N)=O)c(Nc3ccc(C(C)C)cc3)n2)C1 [Example E-20, (R)-3-(1-acryloylazepan-3-ylamino)-5-(4-isopropylphenylamino)-1,2,4-triazine-6-carboxamide] | – | – | ≤ 10 nM | ≤ 10 nM |
| C=CC(=O)N[C@@H]1CCCN(c2nnc(C(N)=O)c(Nc3ccc(C(C)C)cc3)n2)C1 [Example E-21, (R)-3-(3-acrylamidopiperidin-1-yl)-5-(4-isopropylphenylamino)-1,2,4-triazine-6-carboxamide] | – | – | 100 to 1000 nM | 10 to 100 nM |
| C=CC(=O)N[C@H]1CCCN(c2nnc(C(N)=O)c(Nc3ccc(C(C)C)cc3)n2)C1 [Example E-22, (S)-3-(3-acrylamidopiperidin-1-yl)-5-(4-isopropylphenylamino)-1,2,4-triazine-6-carboxamide] | – | – | 100 to 1000 nM | 10 to 100 nM |
| C=CC(=O)N1CCC[C@H](Nc2nnc(C(N)=O)c(Nc3ccc(C(C)(C)C)cc3)n2)C1 [Example E-23, (S)-3-(1-acryloylpiperidin-3-ylamino)-5-(4-tert-butylphenylamino)-1,2,4-triazine-6-carboxamide] | – | – | 10 to 100 nM | ≤ 10 nM |
| C=CC(=O)N[C@H]1CCCC[C@H]1Nc1nnc(C(N)=O)c(Nc2ccc(C(C)C)cc2)n1 [Example E-25, 3-((1R,2S)-2-acrylamidocyclohexyl-amino)-5-(4-isopropylphenylamino)-1,2,4-triazine-6-carboxamide] | – | – | 100 to 1000 nM | ≤ 10 nM |
| C=CC(=O)N1CCC[C@H](N(C)c2nnc(C(N)=O)c(Nc3ccc(C(C)C)cc3)n2)C1 [Example E-27, (S)-3-((1-acryloylpiperidin-3-yl)(methyl)amino)-5-(4-isopropylphenylamino)-1,2,4-triazine-6-carboxamide] | – | – | 10 to 100 nM | ≤ 10 nM |
| C=CC(=O)N[C@@H]1CCCC[C@H]1Nc1nnc(C(N)=O)c(Nc2ccc(C(C)C)cc2)n1 [Example E-28, 3-((1R,2R)-2-acrylamidocyclo-hexylamino)-5-(4-isopropylphenylamino)-1,2,4-triazine-6-carboxamide] | – | – | 100 to 1000 nM | ≤ 10 nM |
| C=CC(=O)N[C@H]1CCCC[C@@H]1Nc1nnc(C(N)=O)c(Nc2ccc(C(C)C)cc2)n1 [Example E-29, 3-((1S,2S)-2-acrylamidocyclohexyl-amino)-5-(4-isopropylphenylamino)-1,2,4-triazine-6-carboxamide] | – | – | 100 to 1000 nM | ≤ 10 nM |
| C=CC(=O)N1CCC(C)(c2ccc(Nc3nc(N[C@@H]4CCCN(C(=O)C=C)C4)nnc3C(N)=O)cc2)CC1 [Example E-32, (R)-5-(4-(1-acryloyl-4-methylpiperidin-4-yl)phenylamino)-3-(1-acryloylpiperidin-3-ylamino)-1,2,4-triazine-6-carboxamide] | – | – | ≤ 10 nM | ≤ 10 nM |
| C=CC(=O)N[C@@H]1CCCC[C@@H]1Nc1nnc(C(N)=O)c(Nc2ccc(C(C)C)cc2)n1 [Example E-34, 3-((1S,2R)-2-acrylamidocyclohexyl-amino)-5-(4-isopropylphenylamino)-1,2,4-triazine-6-carboxamide] | – | – | 100 to 1000 nM | 10 to 100 nM |
| CCC(=O)N1CCC[C@@H](Nc2nnc(C(N)=O)c(Nc3ccc(C(C)(C)C)cc3)n2)C1 [Example E-35, (R)-5-(4-tert-butylphenylamino)-3-(1-propionylpiperidin-3-ylamino)-1,2,4-triazine-6-carboxamide] | – | – | 100 to 1000 nM | ≤ 10 nM |
| C=CC(=O)N1CCC[C@@H](Nc2nnc(C(N)=O)c(Nc3ccc(C4CC4)cc3)n2)C1 [Example E-36, (R)-3-(1-acryloylpiperidin-3-ylamino)-5-(4-cyclopropylphenyl-amino)-1,2,4-triazine-6-carboxamide] | – | – | 10 to 100 nM | ≤ 10 nM |
| C=CC(=O)N1CCC[C@@H](N(C(=O)C=C)c2nnc(C(N)=O)c(Nc3ccc(C4CC4)cc3)n2)C1 [Example E-37, (R)-3-(N-(1-acryloylpiperidin-3-yl)acrylamido)-5-(4-cyclopropylphenyl-amino)-1,2,4-triazine-6-carboxamide] | – | – | 1000 to 10000 nM | ≤ 10 nM |
| C=CC(=O)N1CCC[C@@H](Nc2nnc(C(N)=O)c(Nc3ccc(C4(C#N)CC4)cc3)n2)C1 [Example E-38, (R)-3-(1-acryloylpiperidin-3-ylamino)-5-(4-(1-cyanocyclopropyl)phenylamino)-1,2,4-triazine-6-carboxamide] | – | – | ≤ 10 nM | ≤ 10 nM |
| C=CC(=O)N1CCC[C@@H](N(C(=O)C=C)c2nnc(C(N)=O)c(Nc3ccc(C4(C#N)CC4)cc3)n2)C1 [Example E-39, (R)-3-(N-(1-acryloylpiperidin-3-yl)acrylamido)-5-(4-(1-cyanocyclopropyl)phenylamino)-1,2,4-triazine-6-carboxamide] | – | – | 100 to 1000 nM | ≤ 10 nM |
| C=CC(=O)N1CCC[C@@H](Nc2nnc(C(N)=O)c(Nc3cccc(C)c3)n2)C1 [Example E-44, (R)-3-(1-acryloylpiperidin-3-ylamino)-5-(m-tolylamino)-1,2,4-triazine-6-carboxamide] | – | – | 10 to 100 nM | ≤ 10 nM |
